The results in this text go back to US20120135863A1, “COMPOSITION AND METHOD FOR PROMOTING PLANT ROOT GROWTH” (priority 2009, published 2012).

For the experiment, the system named is Raphanus sativus. As to the kind of experiment: Root growth promotion test: main root length of Raphanus sativus seedlings in seed growing bag. The note with it: compound 2 at 3 ppm, compound I at 10 ppm, mixture 3 ppm compound 2 + 10 ppm compound I; seeds on cardboard impregnated with 17 ml solution; 25° C., 7 days; average of three repeats. It counts as in vivo. The method, then: One (1) part of each of the compound 2 and the compound I was dissolved in 99 parts of dimethyl sulfoxide and each of the resultant solutions was diluted with ion-exchange water so as to adjust the concentrations of the compound 2 and the compound I to 3 ppm and 10 ppm, respectively to thereby prepare respective test chemical solutions.
In the same manner, chemical solutions were prepared so as to adjust the concentrations of the compound 2 and the compound I to 6 ppm and 20 ppm, respectively, and then the respective chemical solutions were mixed in an equivalent amount to prepare a mixed test chemical solution containing 3 ppm of the compound 2 and 10 ppm of the compound I.
A cardboard in a seed growing bag (measuring 177 mm×163 mm, manufactured by Daiki Rika Kogyo Co., Ltd.) was impregnated with 17 ml of each of these test chemical solutions, and 3 seeds of Raphanus sativus were sown on the cardboard. The seed growing bag was placed in a plastic container, and the plastic container was sealed. After culturing in a bright place at 25° C. for 7 days, the length of main root was measured. For comparison, the test was conducted in the same manner without treating with the test chemical solution, and the length of the main root was measured. […]

As to `O=C(O)CCC(=O)NCCc1ccccc1` [Compound I, 4-oxo-4-[(2-phenylethyl)amino]-butyric acid], the “Relative value (main root length, non-treated control group as 100)” value was 148.
